A short description of series [1]: Cytotoxicity against human melanoma cells assessed as cellular growth at 10 uM after 48 hrs by SRB assay relative to control. In kind it is functional, Melanoma cell. On the technique in general: Sulforhodamine B stains cellular protein and so reports cell mass.
Series [2] in a line: Cytotoxicity against human renal cancer cells assessed as cellular growth at 10 uM after 48 hrs by SRB assay relative to control. The series is classed as functional, Cancer cell lines.
Series [3] is described as follows: Cytotoxicity against human CNS cancer cells assessed as cellular growth at 10 uM after 48 hrs by SRB assay relative to control. The series is classed as functional, Cancer cell lines.
Series [4] is described as follows: Cytotoxicity against human breast cancer cells assessed as cellular growth at 10 uM after 48 hrs by SRB assay relative to control. The series is classed as functional, Cancer cell lines.
Series [5] in a line: Cytotoxicity against human colon cancer cells assessed as cellular growth at 10 uM after 48 hrs by SRB assay relative to control. In kind it is functional, Cancer cell lines.
The nature of series [6]: Cytotoxicity against human leukemia cells assessed as cellular growth at 10 uM after 48 hrs by SRB assay relative to control. The series is classed as functional, Leukemia cell.
The nature of series [7]: Cytotoxicity against human ovarian cancer cells assessed as cellular growth at 10 uM after 48 hrs by SRB assay relative to control. In kind it is functional, Cancer cell lines.
Series [8] is described as follows: Cytotoxicity against human non-small cell lung cancer cells assessed as cellular growth at 10 uM after 48 hrs by SRB assay relative to control. In kind it is functional, Cancer cell lines.
For series [9], the system named is MOLT-4. Put plainly: Cytotoxicity against human MOLT4 cells assessed as cellular growth at 1 uM after 48 hrs by SRB assay relative to control. In kind it is functional.
For series [10], the system named is RPMI-8226. Put plainly: Cytotoxicity against human RPMI8226 cells assessed as cellular growth at 1 uM after 48 hrs by SRB assay relative to control. In kind it is functional.
The subject of series [11] is MOLT-4. Put plainly: Cytotoxicity against human MOLT4 cells assessed as cellular growth at 100 uM after 48 hrs by SRB assay relative to control. In kind it is functional.
The test system of series [12] is MOLT-4. Put plainly: Cytotoxicity against human MOLT4 cells after 48 hrs by SRB assay. The note with it: MOLT-4, 48 h. In kind it is functional.
Another series has as its system CAKI-1. The series can be described thus: Cytotoxicity against human Caki1 cells after 48 hrs by SRB assay. In kind it is functional. The note with it: CAKI-1, 48 h.
The subject of a further series is SW-620. The series can be described thus: Cytotoxicity against human SW620 cells assessed as cellular growth at 1 uM after 48 hrs by SRB assay relative to control. The series is classed as functional.
In series [13] the test system is RPMI-8226. Put plainly: Cytotoxicity against human RPMI8226 cells after 48 hrs by SRB assay. The series is classed as functional. The note with it: RPMI-8226, 48 h.
Series [14] has as its system MOLT-4. Put plainly: Cytotoxicity against human MOLT4 cells assessed as cellular growth at 0.01 uM after 48 hrs by SRB assay relative to control. In kind it is functional.
Series [15] relates to RPMI-8226. The series can be described thus: Cytotoxicity against human RPMI8226 cells assessed as cellular growth at 0.1 uM after 48 hrs by SRB assay relative to control. In kind it is functional.
For series [16], the system named is HCC 2998. Put plainly: Cytotoxicity against human HCC2998 cells assessed as cellular growth at 1 uM after 48 hrs by SRB assay relative to control. In kind it is functional.
Series [17] has as its system HCC 2998. The series can be described thus: Cytotoxicity against human HCC2998 cells assessed as cellular growth at 0.01 uM after 48 hrs by SRB assay relative to control. In kind it is functional.
In series [18] the test system is HCC 2998. Put plainly: Cytotoxicity against human HCC2998 cells assessed as cellular growth at 0.1 uM after 48 hrs by SRB assay relative to control. In kind it is functional.
The subject of series [19] is PC-3. Put plainly: Cytotoxicity against human PC3 cells after 48 hrs by SRB assay. The settings on record: PC-3, 48 h. In kind it is functional.
In series [20] the test system is PC-3. Put plainly: Cytotoxicity against human PC3 cells assessed as cellular growth at 0.01 uM after 48 hrs by SRB assay relative to control. In kind it is functional.
Series [21] relates to HT-29. The series can be described thus: Cytotoxicity against human HT-29 cells assessed as cellular growth at 1 uM after 48 hrs by SRB assay relative to control. In kind it is functional.
Series [22] concerns PC-3. The series can be described thus: Cytotoxicity against human PC3 cells assessed as cellular growth at 0.1 uM after 48 hrs by SRB assay relative to control. In kind it is functional.
Series [23] concerns HT-29. Put plainly: Cytotoxicity against human HT-29 cells assessed as cellular growth at 0.1 uM after 48 hrs by SRB assay relative to control. In kind it is functional.
For series [24], the system named is HT-29. The series can be described thus: Cytotoxicity against human HT-29 cells after 48 hrs by SRB assay. In kind it is functional. The settings on record: HT-29, 48 h.
In series [25] the test system is HT-29. Put plainly: Cytotoxicity against human HT-29 cells assessed as cellular growth at 100 uM after 48 hrs by SRB assay relative to control. The series is classed as functional.
Another series has as its system Mus musculus. Put plainly: Toxicity in mouse at 100 to 400 mg/kg measured for 2 weeks. The series is classed as organism-based. The note with it: in vivo, 336 h. Details: dose 100-400 mg/kg.
Series [26] relates to PC-3. Put plainly: Cytotoxicity against human PC3 cells assessed as cellular growth at 100 uM after 48 hrs by SRB assay relative to control. The series is classed as functional.
The subject of series [27] is HT-29. The series can be described thus: Cytotoxicity against human HT-29 cells assessed as cellular growth at 0.01 uM after 48 hrs by SRB assay relative to control. In kind it is functional.
Where [28] appears, read: read-out: LC50 (the source's name).
Where [29] appears, read: read-out: pLC50 (the source's name) (converted).

Turning to `O=C(O)CCCn1c2c(sc3ccccc32)c(=O)n2nnc(-c3ccccc3)c12`, the Activity in series [1] amounted to 95%; in [2] it was 75%; in [3], 88%; in [4], 79%; in series [5] it was 90%; in series [6], 102%. Besides, the Activity in series [7] is on record as 105%; in series [8] it was 85%.

In the case of `CN1CCN(CCCn2c3c(sc4ncccc43)c(=O)n3nnc(-c4ccccc4)c23)CC1`, the Activity with MOLT-4 [9] was 92%; in the series with RPMI-8226 [10] it was 84%; with MOLT-4 [11], -56%; in the series with SW-620, 83%; in the series with MOLT-4 [14] it was 99%; in the series on RPMI-8226 [15], 100%. The Activity was 102% with HCC 2998 [16], 104% with HCC 2998 [17] and 99% in the series on HCC 2998 [18]. Besides, the GI50 in the series with MOLT-4 [12] (read-out: GI50) was 1.98 µM; in the series on MOLT-4 [12] (read-out: pGI50 (converted)), 2 µM; in the series with CAKI-1 (read-out: GI50) it was 1.63 µM; with CAKI-1 (read-out: pGI50 (converted)) it was 1.62 µM; in the series on RPMI-8226 [13] (read-out: GI50), 1.81 µM; in the series on RPMI-8226 [13] (read-out: pGI50 (converted)), 1.82 µM. The CC50 is 11.5 µM in the series with MOLT-4 [12] (setting [28]); 11.5 µM in the series on MOLT-4 [12] (setting [29]); 6.65 µM with CAKI-1 (setting [28]); 6.61 µM in the series with CAKI-1 (setting [29]); greater than 100 µM in the series on RPMI-8226 [13] (setting [28]); greater than 100 µM in the series with RPMI-8226 [13] (read-out: pLC50 (converted)). Also, the TGI is 4.45 µM with MOLT-4 [12] (read-out: TGI); 4.47 µM in the series with MOLT-4 [12] (read-out: pTGI (converted)); 3.29 µM in the series on CAKI-1 (read-out: TGI); 3.31 µM in the series on CAKI-1 (read-out: pTGI (converted)); 4.33 µM with RPMI-8226 [13] (read-out: TGI); 4.37 µM with RPMI-8226 [13] (read-out: pTGI (converted)).

Regarding `O=C(CCCn1c2c(sc3ccccc32)c(=O)n2nnc(-c3ccccc3)c12)NCCc1c[nH]cn1`, the GI50 in the series on PC-3 [19] (read-out: GI50) is 0.0603 µM; in the series with PC-3 [19] (read-out: pGI50 (converted)), 0.0603 µM; in the series with HT-29 [24] (read-out: GI50), 0.674 µM; in the series on HT-29 [24] (read-out: pGI50 (converted)), 0.676 µM. The LC50 was 7.32 µM in the series with PC-3 [19] (read-out: LC50) and 7.24 µM in the series with PC-3 [19] (read-out: pLC50 (converted)). Also, the TGI in the series on PC-3 [19] (read-out: TGI) is 2.21 µM; with PC-3 [19] (read-out: pTGI (converted)), 2.19 µM; with HT-29 [24] (read-out: TGI), 2.01 µM; in the series on HT-29 [24] (read-out: pTGI (converted)) it was 2 µM. In addition, the Activity with PC-3 [20] is 86%; in the series on HT-29 [21], 43%; in the series with PC-3 [22] it was 40%; in the series with HT-29 [23] it was 84%; with HT-29 [25], -100%; in the series with Mus musculus, “Non-toxic”. For the same molecule, the Activity in the series on PC-3 [26] was -51%; in the series on HT-29 [27], 113%. Moreover, the CC50 in the series on HT-29 [24] (setting [28]) is 4.55 µM; with HT-29 [24] (setting [29]), 4.57 µM.

Source of the values: ChEMBL document CHEMBL2401728, “An unexpected Dimroth rearrangement leading to annelated thieno[3,2-d][1,2,3]triazolo[1,5-a]pyrimidines with potent antitumor activity” (Eur J Med Chem, 2013).
